Like-named read-outs stand apart in the source and are kept apart here.
Columns and labels:
in vivo = settings: mouse, male mice, oral route, mortality noted for 7 days
Experimental: The test is carried out on male mice (CD1 Charles Rivers) of 22 to 24 g, which have gone without food for 16 hours.

[1] = system: isolated ileum of guinea pigs; test: Test on the isolated ileum of guinea pigs (agonistic activity); settings: Cavia porcellus; isolated guinea pig ileum, contraction, Tyrode's solution, 37° C.; read-out: pD2 (negative logarithm of the dose which produces 50% of the maximum effect) (converted)
Experimental: Fragments of the ileum of guinea pigs killed by decapitation are removed. The isolated ileum is placed in 10 cm^3 of Tyrode's solution at 37° C. and aerated by a mixture of oxygen (95%) and carbon dioxide gas (5%). The contractions due to the products are recorded with a detector linked to a polygraph. The products under test are added at concentrations between 1.10^-4 M and 1.10^-8 M/1.
The products showing a contracting effect are tested vis a vis atropine and hexamethonium in order to establish whether the activity is of "muscarine" or "nicotine" type.
The possible antagonistic activity of the products is tested vis a vis acetylcholine.
The agonistic activity is expressed in pD2 (negative logarithm of the dose which produces 50% of the maximum effect.)

[2] = Diarrheic activity in mice, oral route; settings: mouse, in vivo, male mice, read-out: DE50 (dose which causes diarrhea in 50% of the animals)
Experimental: The test is carried out on male mice (CD1 Charles Rivers) weighing 25 to 30 g, which have gone without food for 6 hours. The product, dissolved at 5% in methocel, is administered by oral route, using a probang.
The control animals receive only the excipient.
After treatment, the animals are put separately into cages, the bottoms of which are covered with blotting paper, and are put under observation for 30, 60, 120 and 180 minutes.
The absorbent sheets of paper are changed after each observation.
The consistency of the faeces is evaluated according to the Randall and Baruth method (Arch. Int. Pharmacodyn. 220, 94, 1976), according to the scale of the following values:
1: slightly moist faeces with or without halo of humidity,
2: slightly moist faeces with presence of well-defined circle of humidity,
3: moist faeces with presence of a large circle of humidity,
4: faeces without consistency with presence of a very large circle of humidity.
For each product, the dose which causes diarrhea in 50% of the animals is noted according to the method of Miller and Tainter (Proc. Soc. Exp. Biol. Med., 57, 261, 1944).

[3] = Hypothermic activity in mice; assay type: in vivo; settings: Mus musculus, male mice, read-out: Effective dose (-1° C.)
Experimental: (§1) The test is carried out on male mice (CD1 Charles Rivers) weighing 25 to 30 g, which have gone without food for 6 hours.
The body temperature is noted using a thermocouple placed about 1.5 cm inside the rectum, and connected to an electric temperature recorder.
The products are administered by oral or subcutaneous route and the temperatures are noted at instant 0 and at 30 minutes, 1 hour, 2 hours and 21/2 hours after treatment.
The degree of hypothermia is evaluated as the difference between the treated animals and the control animals, and the dose necessary for reducing the body temperature by 1° C. is determined.

[4] = Variation in body temperature (duration of action); assay type: in vivo, mice
Experimental: as §1
The body temperature is noted using a thermocouple placed about 1.5 cm inside the rectum, and connected to an electric temperature recorder. […]
The duration of action of the products is determined using doses capable of reducing the temperature by 1° to 1.5° C.

[5] = system: patients who have a memory deficiency; settings: intravenous route; cited from earlier work
[6] = system: central cholinergic system; settings: cited from earlier work
[7] = 2 mg/kg, sc, 30 min, **p < 0.01
[8] = 2 mg/kg, sc, 60 min, **p < 0.01

CON=CC1CCCN(OC(=O)c2ccccc2)C1 (stereo not drawn) [Example 7, 1-benzoyloxy-3-piperidine carbaldehyde (O-methyloxime)]
LD50 at 168 h (in vivo): > 500 mg/kg
EC50 [1]: > 100 µM
ED50 [2]: 10 mg/kg
ED (-1 C) ([3]; O. R. (oral route)): 4 mg/kg
ED (-1 C) ([3]; SC. R. (subcutaneous route)): 4 mg/kg
Variation in body temperature ([4]; 5 mg/kg, os, 0 min): +0.1 °C
Variation in body temperature ([4]; 5 mg/kg, os, 30 min, **p < 0.01): -1.2 °C
Variation in body temperature ([4]; 5 mg/kg, os, 60 min, **p < 0.01): -1.0 °C
Variation in body temperature ([4]; 5 mg/kg, os, 120 min): +0.1 °C
Variation in body temperature ([4]; 5 mg/kg, os, 180 min): +0.1 °C
Variation in body temperature ([4]; 5 mg/kg, sc, 0 min): +0.1 °C
Variation in body temperature ([4]; 5 mg/kg, sc, 30 min, **p < 0.01): -1.2 °C
Variation in body temperature ([4]; 5 mg/kg, sc, 60 min, **p < 0.01): -1.1 °C
Variation in body temperature ([4]; 5 mg/kg, sc, 180 min): +0.1 °C

C#CCON=CC1CCCNC1 (stereo not drawn) [Example 6, 3-piperidine carbaldehyde O-(2-propynyl) oxime]
LD50 at 168 h (in vivo): 100 mg/kg
EC50 [1]: 4.47 µM
ED50 [2]: 12 mg/kg
ED (-1 C) ([3]; O. R. (oral route)): 7 mg/kg
ED (-1 C) ([3]; SC. R. (subcutaneous route)): 7 mg/kg
Variation in body temperature ([4]; 12.5 mg/kg, os, 0 min): +0.1 °C
Variation in body temperature ([4]; 12.5 mg/kg, os, 30 min, **p < 0.01): -1.2 °C
Variation in body temperature ([4]; 12.5 mg/kg, os, 60 min, **p < 0.01): -1.4 °C
Variation in body temperature ([4]; 12.5 mg/kg, os, 120 min): -0.1 °C
Variation in body temperature ([4]; 12.5 mg/kg, os, 180 min): +0.1 °C
Variation in body temperature ([4]; 12.5 mg/kg, sc, 0 min): -0.1 °C
Variation in body temperature ([4]; 12.5 mg/kg, sc, 30 min, **p < 0.01): -1.6 °C
Variation in body temperature ([4]; 12.5 mg/kg, sc, 60 min, **p < 0.01): -1.5 °C
Variation in body temperature ([4]; 12.5 mg/kg, sc, 120 min): -0.2 °C
Variation in body temperature ([4]; 12.5 mg/kg, sc, 180 min): +0.1 °C

COC(=O)C1=CCCN(C)C1 [Arecoline, HBr, reference compound]
Variation in body temperature ([4]; 3.5 mg/kg, sc, 0 min): -0.1 °C
Variation in body temperature ([4]; 3.5 mg/kg, sc, 30 min, **p < 0.01): -1.5 °C
Variation in body temperature ([4]; 3.5 mg/kg, sc, 60 min): -0.1 °C
Variation in body temperature ([4]; 3.5 mg/kg, sc, 120 min): +0.2 °C
Variation in body temperature ([4]; 3.5 mg/kg, sc, 180 min): +0.2 °C

COC(=O)C1=CCCN(C)C1 [Arecoline, reference compound]
EC50 [1]: 0.126 µM
ED50 [2]: 35 mg/kg
ED (-1 C) ([3]; O. R. (oral route)): 194 mg/kg
ED (-1 C) ([3]; SC. R. (subcutaneous route)): 3 mg/kg
effect on patients who have a memory deficiency [5]: positive effect
period of action ([6]; in vivo): short-lasting period of action
activity by oral route ([6]; oral route): very weak activity by oral route

CON=CC1CCCN(O)C1 (stereo not drawn) [Example 8, 1-hydroxy-3-piperidine carbaldehyde (O-methyloxime)]
LD50 at 168 h (in vivo): 200 mg/kg
EC50 [1]: 11.2 µM
ED50 [2]: 4 mg/kg
ED (-1 C) ([3]; O. R. (oral route)): 2 mg/kg
ED (-1 C) ([3]; SC. R. (subcutaneous route)): 1.6 mg/kg
Variation in body temperature ([4]; 2 mg/kg, sc, 0 min): +0.1 °C
Variation in body temperature [4, 7]: -1.2 °C
Variation in body temperature [4, 8]: -1.0 °C
Variation in body temperature ([4]; 2.5 mg/kg, os, 0 min): +0.1 °C
Variation in body temperature ([4]; 2.5 mg/kg, os, 30 min, **p < 0.01): -1.2 °C
Variation in body temperature ([4]; 2.5 mg/kg, os, 60 min, **p < 0.01): -1.0 °C
Variation in body temperature ([4]; 2.5 mg/kg, os, 180 min): +0.2 °C

CON=CC1CCCNC1 (stereo not drawn) [Example 2, 3-piperidine carbaldehyde O-methyloxime]
LD50 at 168 h (in vivo): 125 mg/kg
EC50 [1]: 0.891 µM
ED50 [2]: 3 mg/kg
ED (-1 C) ([3]; O. R. (oral route)): 1.2 mg/kg
ED (-1 C) ([3]; SC. R. (subcutaneous route)): 1.2 mg/kg
Variation in body temperature ([4]; 2 mg/kg, os, 0 min): +0.1 °C
Variation in body temperature ([4]; 2 mg/kg, os, 30 min, **p < 0.01): -1.7 °C
Variation in body temperature ([4]; 2 mg/kg, os, 60 min, **p < 0.01): -1.4 °C
Variation in body temperature ([4]; 2 mg/kg, os, 120 min): +0.1 °C
Variation in body temperature ([4]; 2 mg/kg, os, 180 min): +0.1 °C
Variation in body temperature [4, 7]: -1.7 °C
Variation in body temperature [4, 8]: -1.5 °C
Variation in body temperature ([4]; 2 mg/kg, sc, 180 min): +0.1 °C

Reference: US4927837A, “Derivatives of 3-piperidine carbaldehyde oxime and their use as medicaments” (Roussel Uclaf, priority 1987, dated 1990)
